{"source": "paper PMC9571264", "about": "(Molecules, 2022)", "key": {"[1]": {"test_system": "caspases 3/7 in HepG2 cells", "experiment": "Caspase 3/7 green flow cytometry assay, HepG2", "type": "cell-based, human", "details": "HepG2, 48 h; untreated cells 1.32%", "description": "Apoptosis is a form of cell death programmed by the family of cysteine protease. In response to the various cell death stimuli, a large irreversible proteolytic cascade is triggered and subsequently generated. The effector caspase activity has been evaluated to determine the apoptotic pathway initiated by the tested compounds using the “Cell Event™ Caspase 3/7 Green Detection kit”.\n(See supplementary information for the detailed methodology of flow cytometric analyses, including “FITC/Annexin-V-FITC/PI differential apoptosis/necrosis”, “DNA content-flow cytometry aided cell cycle”, and “Caspase 3/7 green flow cytometry”).\nSupplementary materials for detailed methodology\n2.2.2.1. Flow cytometric analysis\n2.2.2.1.1. FITC/Annexin-V-FITC/PI Differential Apoptosis/Necrosis Assessment Apoptosis and necrosis cell populations are determined using Annexin V-FITC apoptosis detection kit (Abcam Inc., Cambridge Science Park, Cambridge, UK) coupled with 2 fluorescent channels flowcytometry. […] After staining, cells are injected via ACEA Novocyte™ flowcytometer (ACEA Biosciences Inc., San Diego, CA, USA) and analyzed for FITC and PI fluorescent signals using FL1 and FL2 signal detector, respectively (λex/em 488/530 nm for FITC and λex/em 535/617 nm for PI). […]\nconcentration was measured. […]"}, "[2]": {"test_system": "p-PI3K and p-Akt in HepG2 cells", "experiment": "Western blotting p-PI3K and p-AKT, HepG2", "type": "cell-based, human", "details": "HepG2, with respect to control untreated cells", "experimental": "Western blotting analysis was conducted using untreated and treated HepG2 and HL60 cells. Cells were washed in PBS and lysed in a boiling sample buffer (62.5 mM Tris-HCl pH 6.8, 1% SDS, 10% glycerol, and 5% β-mercaptoethanol) for sodium dodecyl sulfate polyacrylamide gel electrophoresis (SDS-PAGE). The lysates were boiled for 5 min with a lamellae buffer, and the proteins were separated by SDS-PAGE and transferred to an Immobilon membrane (Millipore, Burlington, MA, USA). After incubation in 5% non-fat dry milk, Tris-HCL, 0.1% Tween 20 for 1 h, p-PI3K, and p-AKT, primary antibodies were added to one of the membranes containing specimen samples and incubated at 4 °C overnight. Appropriate secondary antibodies were incubated for 2 hr at room temperature. After being washed twice n 1× TBS-T, densitometric analysis of the immunoblots was performed to quantify the amounts of p-PI3K and p-AKT against the control sample by total protein normalization using Image analysis software on the ChemiDoc MP imaging system (version 3) produced by Bio-Rad (Hercules, CA, USA).\nconcentration was measured. Lysates were combined with reaction buffer and\nincubated with Caspase 3/7 Detection Reagent (specific colorimetric substrates) at 37\n°C for 6 h. The samples were estimated at λ 488 nm in BD FACS Calibur flow\n2.2.2.3. […]\nthe immunoblots was performed to quantify the amounts of p-PI3K and p-AKT against […]"}}, "data": [{"smiles": "Cc1c(Br)c(=O)oc2c(Br)c(OC(=O)/C=C/c3ccccc3)c(Br)cc12", "note": "[Compound 8b, (2E)-3,6,8-Tribromo-4-methyl-2-oxo-2H-chromen-7-yl Cinnamate]", "values": [{"measurement": "Apoptotic cells due to active caspases 3/7", "setting": "[1]", "result": 6.09, "unit": "%"}, {"measurement": "levels of p-PI3K and p-Akt", "setting": "[2]", "result": "effectively suppressed"}]}]}
